{"source": "paper PMC4491109", "about": "“Synthesis and anticonvulsant activity of new N-phenyl-2-(4-phenylpiperazin-1-yl)acetamide derivatives” (Medicinal Chemistry Research, 2015)", "key": {"[1]": {"test_system": "pentylenetetrazole-induced seizures", "assay": "Subcutaneous pentylenetetrazole (scPTZ) test, i.p. administration in mice", "format": "in vivo", "conditions": "Mus musculus, ip, doses of 30, 100 or 300 mg/kg"}, "[2]": {"test_system": "maximal electroshock (MES) seizures", "assay": "MES test after oral administration in rats (screen and quantification)", "format": "in vivo", "conditions": "for ED50: Rattus norvegicus, po, at TPE, 95 % confidence limits in parentheses; for PI (TD50/ED50), MES: protective index for MES", "description": "This screen discloses the time of onset, the approximate time of peak effect (TPE) and the duration of anticonvulsant activity or neurotoxicity.\nThe quantitative evaluation of the MES median effective dose (ED50) and toxic dose (TD50) was performed at previously estimated TPE—2 h.\n(§1) Phase I of the in vivo studies involved three tests: MES, scPTZ and rotarod test for NT. Male albino mice (CF#1 strain, weighing 18–25 g) and male albino rats (Sprague–Dawley) were used as experimental animals. The animals were housed in metabolic cages and allowed free access to food and water. The compounds were injected intraperitoneally to mice as a suspension in 0.5 % methylcellulose/water mixture at a dose level 30, 100 or 300 mg/kg with anticonvulsant activity and neurotoxicity assessment at 0.5 and 4 h after administration. Promising derivatives from phase I underwent phase VIa in which they were administrated orally into rats at a fixed dose of 30 mg/kg for both MES and the rotarod toxicity determination at five pretreatment times: 0.25, 0.5, 1, 2, 4 h. Groups of eight mice or four rats are employed.\nIn the MES screen, an electrical stimulus of 0.2 s in duration (50 mA in mice and 150 mA in rats) is delivered via corneal electrodes primed with an electrolyte solution containing an anesthetic agent. The endpoint is the tonic extension of the hind limbs. […] Mice not displaying hind limb tonic extension are considered to be protected from seizures."}, "in vivo": {"assay": "in vivo", "conditions": "male, Sprague-Dawley, rat, po"}, "[3]": {"test_system": "6-Hz psychomotor seizures", "assay": "Psychomotor seizure test (6-Hz), i.p. in mice", "format": "in vivo", "conditions": "100 mg/kg", "from_the_text": "In the next step of pharmacological investigations, four compounds 12, 19, 20 and 24 were chosen for the evaluation of anticonvulsant activity in the psychomotor 6-Hz test (Table 4). The selection was made randomly as a part of the search of molecules providing anti-6-Hz protection among chemically diversified compounds pursued in the NIH/NINDS. It should be noticed that 6-Hz screen has been validated as a model of therapy-resistant epilepsy (Barton et al., [2001]).\nThe 6-Hz model is an alternative electroshock paradigm that uses low-frequency (6 Hz), long-duration (3 s) electrical stimulation. Corneal stimulation (0.2 ms duration monopolar rectangular pulses at 6-Hz for 3 s) was delivered by a constant-current device. During the stimulation, mice were manually restrained and released into the observation cage immediately after the current application. The seizures manifest in “stunned” posture associated with rearing, forelimb, automatic movements and clonus, twitching the vibrissae and Straub–tail. The duration of the seizure activity ranges from 60 to 120 s in untreated animals. At the end of the seizure, animals resume their normal exploratory behavior. The experimental end point is protection against the seizure. The animal is considered to be protected if it resumes its normal exploratory behavior within 10 s from the stimulation (Brown et al., [1953])."}, "[4]": {"test_system": "maximal electroshock (MES) seizures", "assay": "Maximal electroshock (MES) test, i.p. administration in mice", "format": "in vivo", "conditions": "Mus musculus, ip, doses of 30, 100 or 300 mg/kg"}, "[5]": {"test_system": "pentylenetetrazole-induced seizures", "assay": "scPTZ test after p.o. administration in rats (quantification)", "format": "in vivo", "conditions": "for ED50: Rattus norvegicus, po, at TPE, 95 % confidence limits in parentheses", "description": "On the basis of the preliminary data in rats, compound 20 was chosen for quantification of the pharmacological parameters (ED50 and TD50) after p.o. application. The quantitative evaluation of the MES median effective dose (ED50) and toxic dose (TD50) was performed at previously estimated TPE—2 h.\nThe scPTZ test utilizes a dose of pentylenetetrazole (85 mg/kg in mice) that produces clonic seizures lasting for a period of at least 5 s in 97 % (CD97) of animals tested. PTZ is administered 0.5 and 4 h after injections of tested compounds, and observation is carried out for 30 min. In the control groups, the first episode of clonic convulsions is observed between 6 and 15 min of observation. The absence of clonic convulsions in the observed time period of […] is interpreted as the compound’s ability to protect against PTZ-induced seizures."}, "mice (rotarod test)": {"test_system": "mice (rotarod test)", "assay": "Neurotoxicity screening (NT), rotarod test, i.p. administration in mice", "format": "in vivo", "conditions": "male, CF#1, mouse, in vivo", "description": "Considering the aforementioned facts, the profile of anticonvulsant activity of final compounds 3–24 was established in the MES and scPTZ tests, after intraperitoneal (i.p.) injection in mice at doses of 30, 100 and 300 mg/kg. An observation was carried out at two different time intervals—0.5 and 4 h. Furthermore, in addition to the primary anticonvulsant screening, the acute neurological toxicity (NT) was determined in mice by the rotarod test.\nas §1\nThe neurological toxicity test (NT) induced by a compound was detected in mice or rats using standardized rotarod test (Dunham and Miya, [1957]). Untreated control mice or rats, when placed on the rod, can maintained their equilibrium for a prolonged time period."}, "rats (rotarod test)": {"test_system": "rats (rotarod test)", "assay": "Neurotoxicity, rotarod test after p.o. administration in rats", "conditions": "at TPE, 95 % confidence limits in parentheses"}, "[6]": {"test_system": "6-Hz psychomotor seizures", "set-up": "method as in Rogawski, 2006", "conditions": "ref Rogawski, 2006; cited from earlier work"}, "MES seizures": {"test_system": "MES seizures", "set-up": "method as in Rogawski, 2006", "conditions": "even at high doses, ref Rogawski, 2006; cited from earlier work"}, "PTZ seizures": {"test_system": "PTZ seizures", "set-up": "method as in Rogawski, 2006", "conditions": "even at high doses, ref Rogawski, 2006; cited from earlier work"}, "[7]": {"conditions": "0.5 h, read-out: scPTZ, minimum dose effective in half or more animals tested, 0.5 h"}, "[8]": {"conditions": "4 h, read-out: scPTZ, minimum dose effective in half or more animals tested, 4 h"}, "[9]": {"conditions": "0.5 h, read-out: MES, minimum dose effective in half or more animals tested, 0.5 h"}, "[10]": {"conditions": "4 h, read-out: MES, minimum dose effective in half or more animals tested, 4 h"}}, "note": "Where two headings read alike, the source gives them in different places.", "data": [{"compound": "Cl.O=C(CN1CCN(c2cccc(C(F)(F)F)c2)CC1)Nc1cccc(C(F)(F)F)c1", "note": "[Compound 20, N-[3-(Trifluoromethyl)phenyl]-2-[4-[3-(trifluoromethyl)phenyl]piperazin-1-yl]acetamide monohydrochloride]", "values": [{"measurement": "minimal effective dose", "setting": "[1]; [7]", "result": "> 300", "unit": "mg/kg"}, {"measurement": "minimal effective dose", "setting": "[1]; [8]", "result": "> 300", "unit": "mg/kg"}, {"measurement": "ED50", "setting": "[2]", "result": 52.3, "unit": "mg/kg"}, {"measurement": "MES, number of rats protected/number of rats tested, 0.25 h", "setting": "[2]; p.o., 30 mg/kg", "result": "0/4"}, {"measurement": "MES, number of rats protected/number of rats tested, 0.5 h", "setting": "[2]; p.o., 30 mg/kg", "result": "1/4"}, {"measurement": "MES, number of rats protected/number of rats tested, 1 h", "setting": "[2]; p.o., 30 mg/kg", "result": "0/4"}, {"measurement": "MES, % of animals protected, 2 h", "setting": "[2]; p.o., 30 mg/kg, 2 h", "result": 50, "unit": "%"}, {"measurement": "MES, number of rats protected/number of rats tested, 2 h", "setting": "[2]; p.o., 30 mg/kg, 2 h", "result": "2/4"}, {"measurement": "MES, number of rats protected/number of rats tested, 4 h", "setting": "[2]; p.o., 30 mg/kg", "result": "0/4"}, {"measurement": "PI (TD50/ED50), MES", "setting": "[2]; p.o.", "result": ">9.56 (MES)"}, {"measurement": "TD50 at 2 h", "setting": "in vivo", "result": "> 500", "unit": "mg/kg"}, {"measurement": "6-Hz, % of animals protected, 0.25 h", "setting": "[3]; 0.25 h", "result": 25, "unit": "%"}, {"measurement": "6-Hz, % of animals protected, 2 h", "setting": "[3]; 2 h", "result": 25, "unit": "%"}, {"measurement": "6-Hz, % of animals protected, 4 h", "setting": "[3]; 4 h", "result": 25, "unit": "%"}, {"measurement": "6-Hz, number of mice protected/number of mice tested, 0.25 h", "setting": "[3]; current 32 mA, 0.25 h", "result": "1/4"}, {"measurement": "6-Hz, number of mice protected/number of mice tested, 0.5 h", "setting": "[3]; current 32 mA, 0.5 h", "result": "0/4"}, {"measurement": "6-Hz, number of mice protected/number of mice tested, 1 h", "setting": "[3]; current 32 mA, 1 h", "result": "0/4"}, {"measurement": "6-Hz, number of mice protected/number of mice tested, 2 h", "setting": "[3]; current 32 mA, 2 h", "result": "1/4"}, {"measurement": "6-Hz, number of mice protected/number of mice tested, 4 h", "setting": "[3]; current 32 mA, 4 h", "result": "1/4"}, {"measurement": "minimal effective dose", "setting": "[4]; [9]", "result": "> 300", "unit": "mg/kg"}, {"measurement": "minimal effective dose", "setting": "[4]; [10]", "result": 100, "unit": "mg/kg"}]}, {"compound": "O=C1NC(=O)C(c2ccccc2)(c2ccccc2)N1", "note": "[Phenytoin, reference compound]", "values": [{"measurement": "minimal effective dose", "setting": "[1]; [7]", "result": "> 300", "unit": "mg/kg"}, {"measurement": "minimal effective dose", "setting": "[1]; [8]", "result": "> 300", "unit": "mg/kg"}, {"measurement": "ED50", "setting": "[5]", "result": "> 500", "unit": "mg/kg"}, {"measurement": "ED50", "setting": "[2]", "result": 28.1, "unit": "mg/kg"}, {"measurement": "MES, number of rats protected/number of rats tested, 0.25 h", "setting": "[2]; p.o., 30 mg/kg", "result": "1/4"}, {"measurement": "MES, number of rats protected/number of rats tested, 0.5 h", "setting": "[2]; p.o., 30 mg/kg", "result": "4/4"}, {"measurement": "MES, number of rats protected/number of rats tested, 1 h", "setting": "[2]; p.o., 30 mg/kg", "result": "3/4"}, {"measurement": "MES, number of rats protected/number of rats tested, 2 h", "setting": "[2]; p.o., 30 mg/kg, 2 h", "result": "3/4"}, {"measurement": "MES, number of rats protected/number of rats tested, 4 h", "setting": "[2]; p.o., 30 mg/kg", "result": "3/4"}, {"measurement": "PI (TD50/ED50), MES", "setting": "[2]; p.o.", "result": ">3.6 (MES)"}, {"measurement": "TD50 at 2 h", "setting": "in vivo", "result": "> 100", "unit": "mg/kg"}, {"measurement": "NT (rotarod), minimum dose neurotoxic in half or more animals tested, 0.5 h", "setting": "mice (rotarod test); 0.5 h", "result": 100, "unit": "mg/kg"}, {"measurement": "NT (rotarod), minimum dose neurotoxic in half or more animals tested, 4 h", "setting": "mice (rotarod test); 4 h", "result": 100, "unit": "mg/kg"}, {"measurement": "minimal effective dose", "setting": "[4]; [9]", "result": 30, "unit": "mg/kg"}, {"measurement": "minimal effective dose", "setting": "[4]; [10]", "result": 30, "unit": "mg/kg"}]}, {"compound": "CCCC(CCC)C(=O)O", "note": "[Valproic acid]", "values": [{"measurement": "ED50", "setting": "[5]", "result": 646, "unit": "mg/kg"}, {"measurement": "PI (TD50/ED50), scPTZ", "setting": "[5]; protective index for scPTZ", "result": 1.2}, {"measurement": "PI (TD50/ED50), MES", "setting": "[2]; p.o.", "result": 1.6}, {"measurement": "TD50 NT (rotarod)", "setting": "rats (rotarod test)", "result": "784 (503–1176) mg/kg"}]}, {"compound": "CC[C@@H](C(N)=O)N1CCCC1=O", "note": "[levetiracetam]", "values": [{"measurement": "effectiveness in the 6-Hz psychomotor seizure model (in words)", "setting": "[6]", "result": "high effectiveness"}, {"measurement": "activity against classical MES seizures (in words)", "setting": "MES seizures", "result": "inactive"}, {"measurement": "activity against classical PTZ seizures (in words)", "setting": "PTZ seizures", "result": "inactive"}]}]}
